Measurements: patent publication US20210315893A1 (Galapagos NV, priority 2017, published 2021)

Experiments:
[1] = target: T1, human GPCR sphingosine 1-phosphate receptor 2 (Homo sapiens, UniProt O95136); assay: S1PR2 antagonist Ca2+ flux assay; type: cell-based; settings: antagonist mode, CHO-S1PR2 cells, S1P at EC80, Ca2+ fluorescence; read-out: S1P2 EC50 (nM), S1P2 antagonist EC50
T1 construct: host or cells: CHO
Method: Triggering of S1PR2 by administration of Sphingosine-1-phosphate leads to a transient increase in intracellular Ca^2+. The Ca^2+ flux assays are measuring the release of Ca^2+ intracellularly by use of a Ca^2+ sensitive fluorescent dye. The assay is firstly run in agonist mode (incubation of compounds alone) to ensure that the Ca^2+ released measured is not caused by the test compound having an agonistic effect. Then the assay is continued in antagonist mode (Sphingosine-1-Phosphate added to incubated medium containing the test compounds).
CHO cells stably overexpressing human GPCR sphingosine 1-phosphate receptor 2 (CHO-S1PR2 Perkin Elmer; ES-594-A) are seeded from a frozen stock in 384 wells sterile microplates (50 μL; 7,500 cells/well) and are incubated overnight at 37° C. and 5% CO2. The next day cells are washed twice with starvation medium (F-12 Ham's medium containing 0.1% BSA (Fatty acid free: FAF)) and left in 25 μL starvation medium for 1 h at 37° C., 5% CO2. After this starvation cells are incubated with 25 μL buffer containing the Ca^2+-sensitive fluorescent dye (0.5 mg Fluo8+125 mg Allura Red in 100 mL of 1% DMSO, in HBSS+20 mM Hepes+5 mM probenecid). The cells are incubated for an additional 1 h after which 10 μL compounds, diluted in HBSS buffer with 20 mM Hepes and 0.1% BSA (FAF), are added to the cells and intracellular Ca2+ changes are immediately measured by reading fluorescence during 3 min (FDSS/pCELL reader). The ratio of the maximal fluorescence over the background fluorescence before compound injection is used to determine compound response.
After readout of the agonist activity, the plates are incubated for 15 min at 37° C. and 5% CO2. Then, cells are stimulated with 10 μL Sphingosine-1-Phosphate (S1P) (Avanti Polar lipids-860492P) at its EC80 concentration. Intracellular Ca2+ changes are immediately measured by reading fluorescence during 3 min (FDSS/pCELL reader). The ratio of the maximal fluorescence over the background fluorescence before compound injection is used to determine compound response.
The obtained ratio's for agonist and antagonist readout were normalized versus vehicle and EC 100 of S1P ascontrols for agonist mode and versus vehicle and […]. From these normalized data EC50 of the compounds are derived.

S1PR2 = target: T2, S1PR2 (Homo sapiens, UniProt O95136); assay: S1PR2 binding assay (competition with radioactively labeled S1P, SpA); settings: membranes from stable cell line over expressing S1PR2, SpA beads; read-out: S1P2 EC50 (nM), S1PR2 binding EC50
T2 construct: expressed in transfected cells
Method: The following assay can be used for determination of S1PR2 binding. The binding assay measures the potential to compete with radioactively labeled S1P for binding to the receptor.
The assay is performed in a96 well plate where the following reagents are added. First 50 μL compound is added into the assay plate, followed by addition of 100 μL ofa mixture consisting of membrane and Scintillation proximity Assay (SpA) beads [mixture consists […] membranes derived from stable cell line over expressing SPR2, 0.5 mg/well Polyvinyltoluene-Wheat Germ-Agglutinin (PVT-WGA) beads (Perkin Elmer, RPNQOO1)]. All components are diluted in assay buffer containing 20 mM Tris pH 7.5; 10 mM MgCl2; 100 mM NaCl; 0.4% BSA FAF; 1 mM Na3VO4) and incubated for 15 min until addition to the assay plate. Subsequently, 50 ul of radioactively labeled S1P is added to the wells (Sphingosine, D-erythro-[3-3H] 1-phosphate; ARC; ART0778). After an incubation for 2 h at room temperature, plates are centrifuged at 2000 rpm during 20 min. Plates are read on a Topcount reader (Perkin Elmer) immediately after centrifugation (readout time, 1 min/well).

T2 sequence (O95136 whole entry): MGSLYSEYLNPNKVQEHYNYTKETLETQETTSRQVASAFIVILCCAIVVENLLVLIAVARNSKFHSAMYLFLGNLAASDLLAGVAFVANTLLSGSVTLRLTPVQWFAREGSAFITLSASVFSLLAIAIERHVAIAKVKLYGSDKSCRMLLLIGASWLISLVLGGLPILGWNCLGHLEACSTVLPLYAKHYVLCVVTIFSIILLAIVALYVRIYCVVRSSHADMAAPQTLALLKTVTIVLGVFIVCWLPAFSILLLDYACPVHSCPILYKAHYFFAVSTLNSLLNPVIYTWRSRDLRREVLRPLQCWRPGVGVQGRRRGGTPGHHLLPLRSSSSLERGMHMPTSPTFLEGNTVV
T1 sequence (O95136 whole entry): as above

Structure (SMILES)	EC50 [1]	EC50 (S1PR2)
O=C(O)Cn1nc(Cc2nc3cc(OCC(F)F)c(F)cc3[nH]2)c2ccccc2c1=O [Compound 130, 2-[4-[[5-(2,2-difluoroethoxy)-6-fluoro-1H-benzimidazol-2-yl]methyl]-1-oxo-phthalazin-2-yl]acetic acid]	63.8 nM	2500 nM
CC(C)(C)NC(=O)Cn1nc(Cc2nc3cc(Cl)c(OC(F)(F)F)cc3[nH]2)c2c(c1=O)CCCC2 [Compound 147]	1380 nM	1090 nM
N#Cc1cc2nc(Cc3nn(CC(=O)N4CCOCC45CCC5)c(=O)c4ccccc34)[nH]c2cc1OCC(F)F [Compound 189, 6-(2,2-difluoroethoxy)-2-[[3-[2-(6-oxa-9-azaspiro[3.5]nonan-9-yl)-2-oxo-ethyl]-4-oxo-phthalazin-1-yl]methyl]-1H-benzimidazole-5-carbonitrile]	143 nM	558 nM
CC(C)(C)C(O)CNC(=O)Cn1nc(Cc2nc3cc(OCC(F)F)c(C#N)cc3[nH]2)c2ccccc2c1=O (stereo not shown) [Compound 222, 2-[4-[[6-cyano-5-(2,2-difluoroethoxy)-1H-benzimidazol-2-yl]methyl]-1-oxo-phthalazin-2-yl]-N-(2-hydroxy-3,3-dimethylbutyl)acetamide]	26.1 nM	137 nM
N#Cc1cc2[nH]c(Cc3nn(CC(=O)NCC(F)F)c(=O)c4ccccc34)nc2cc1OCC(F)F [Compound 223, 2-[4-[[6-cyano-5-(2,2-difluoroethoxy)-1H-benzimidazol-2-yl]methyl]-1-oxo-phthalazin-2-yl]-N-(2,2-difluoroethyl)acetamide]	68.8 nM	330 nM
N#Cc1cc2[nH]c(Cc3nn(CC(=O)NCCC(F)(F)F)c(=O)c4ccccc34)nc2cc1OCC(F)F [Compound 224, 2-[4-[[6-cyano-5-(2,2-difluoroethoxy)-1H-benzimidazol-2-yl]methyl]-1-oxo-phthalazin-2-yl]-N-(3,3,3-trifluoropropyl)acetamide]	19.6 nM	232 nM
N#Cc1cc2[nH]c(Cc3nn(CC(=O)NC(C#N)C4CC4)c(=O)c4ccccc34)nc2cc1OCC(F)F (stereo not shown) [Compound 226, N-[cyano-(cyclopropyl)methyl]-2-[4-[[6-cyano-5-(2,2-difluoroethoxy)-1H-benzimidazol-2-yl]methyl]-1-oxo-phthalazin-2-yl]acetamide]	66.2 nM	552 nM
N#Cc1cc2[nH]c(Cc3nn(CC(=O)NCC(F)(F)CO)c(=O)c4ccccc34)nc2cc1OCC(F)F [Compound 228, 2-[4-[[6-cyano-5-(2,2-difluoroethoxy)-1H-benzimidazol-2-yl]methyl]-1-oxo-phthalazin-2-yl]-N-(2,2-difluoro-3-hydroxypropyl)acetamide]	21.1 nM	52.5 nM
N#Cc1cc2[nH]c(Cc3nn(CC(=O)NCCS(N)(=O)=O)c(=O)c4ccccc34)nc2cc1OCC(F)F [Compound 229, 2-[4-[[6-cyano-5-(2,2-difluoroethoxy)-1H-benzimidazol-2-yl]methyl]-1-oxo-phthalazin-2-yl]-N-(2-sulfamoylethyl)acetamide]	120 nM	503 nM
N#Cc1cc2[nH]c(Cc3nn(CC(=O)NCC(F)(F)F)c(=O)c4ccccc34)nc2cc1OCC(F)F [Compound 230, 2-[4-[[6-cyano-5-(2,2-difluoroethoxy)-1H-benzimidazol-2-yl)methyl]-1-oxo-phthalazin-2-yl]-N-(2,2,2-trifluoroethyl)acetamide]	408 nM	1950 nM
N#Cc1cc2[nH]c(Cc3nn(CC(=O)N4CCCC(O)C4)c(=O)c4ccccc34)nc2cc1OCC(F)F (stereo not shown) [Compound 231, 6-(2,2-difluoroethoxy)-2-[[3-[2-(3-hydroxy-1-piperidyl)-2-oxo-ethyl]-4-oxo-phthalazin-1-yl]methyl]-3H-benzimidazole-5-carbonitrile]	77.9 nM	453 nM
N#Cc1cc2[nH]c(Cc3nn(CC(=O)NCC4CC(F)(F)C4)c(=O)c4ccccc34)nc2cc1OCC(F)F [Compound 232, 2-[4-[[6-cyano-5-(2,2-difluoroethoxy)-1H-benzimidazol-2-yl]methyl]-1-oxo-phthalazin-2-yl]-N-[(3,3-difluorocyclobutyl)methyl]acetamide]	16.3 nM	122 nM
CN(C)C(=O)C1CCN(C(=O)Cn2nc(Cc3nc4cc(OCC(F)F)c(C#N)cc4[nH]3)c3ccccc3c2=O)CC1 [Compound 236, 1-[2-[4-[[6-cyano-5-(2,2-difluoroethoxy)-1H-benzimidazol-2-yl]methyl]-1-oxo-phthalazin-2-yl]acetyl]-N,N-dimethyl-piperidine-4-carboxamide]	958 nM	2090 nM
CC(C)(O)C1CCCN(C(=O)Cn2nc(Cc3nc4cc(OCC(F)F)c(C#N)cc4[nH]3)c3ccccc3c2=O)C1 (stereo not shown) [Compound 237, 6-(2,2-difluoroethoxy)-2-[[3-[2-[3-(1-hydroxy-1-methyl-ethyl)-1-piperidyl]-2-oxo-ethyl]-4-oxo-phthalazin-1-yl]methyl]-3H-benzimidazole-5-carbonitrile]	55.8 nM	650 nM
N#Cc1cc2[nH]c(Cc3nn(CC(=O)N4CC5(CCOCC5)C4)c(=O)c4ccccc34)nc2cc1OCC(F)F [Compound 239, 6-(2,2-difluoroethoxy)-2-[[3-[2-(7-oxa-2-azaspiro[3.5]nonan-2-yl)-2-oxo-ethyl]-4-oxo-phthalazin-1-yl]methyl]-3H-benzimidazole-5-carbonitrile]	781 nM	1740 nM
CCS(=O)(=O)C1CCN(C(=O)Cn2nc(Cc3nc4cc(OCC(F)F)c(C#N)cc4[nH]3)c3ccccc3c2=O)CC1 [Compound 240, 6-(2,2-difluoroethoxy)-2-[[3-[2-(4-ethylsulfonyl-1-piperidyl)-2-oxo-ethyl]-4-oxo-phthalazin-1-yl]methyl]-3H-benzimidazole-5-carbonitrile]	345 nM	1300 nM
CN(C)C(=O)CN(C)C(=O)Cn1nc(Cc2nc3cc(OCC(F)F)c(C#N)cc3[nH]2)c2ccccc2c1=O [Compound 241, 2-[4-[[6-cyano-5-(2,2-difluoroethoxy)-1H-benzimidazol-2-yl]methyl]-1-oxo-phthalazin-2-yl]-N-[2-(dimethylamino)-2-oxo-ethyl]-N-methyl-acetamide]	47.2 nM	372 nM
CS(=O)(=O)NC(=O)Cn1nc(Cc2nc3cc(OCC(F)F)c(Cl)cc3[nH]2)c2cc(C#N)ccc2c1=O [Compound 245, 2-[4-[[6-chloro-5-(2,2-difluoroethoxy)-1H-benzimidazol-2-yl]methyl]-6-cyano-1-oxo-phthalazin-2-yl]-N-methylsulfonyl-acetamide]	14.3 nM	609 nM
CC(C(=O)NS(C)(=O)=O)n1nc(Cc2nc3cc(OCC4CC4)c(Cl)cc3[nH]2)c2ccccc2c1=O (stereo not shown) [Compound 246, N-{2-[4-(6-Chloro-5-cyclopropylmethoxy-1H-benzoimidazol-2-ylmethvl)-1-oxo-1H-phthalazin-2-yl]-propionyl}-methanesulfonamide]	13.6 nM	775 nM
CCOc1cc2nc(Cc3nn(CC(=O)NS(C)(=O)=O)c(=O)c4ccccc34)[nH]c2cc1F [Compound 247, 2-[4-[(5-ethoxy-6-fluoro-1H-benzimidazol-2-yl)methyl]-1-oxo-phthalazin-2-yl]-N-methylsulfonyl-acetamide]	87.9 nM	2470 nM
